# From patent publication US20080009025A1, “PROTEIN KINASE REGULATION” (priority 1999, published 2008)
# Where a SMILES comes first, the peptide text is derived from it.
# Tests used:
# PDK1 [1] = molecular target: T1, PDK1 (Homo sapiens, UniProt O15530); test: Surface plasmon resonance binding of His-PDK1 to immobilised p70 S6K; conditions: 10 μM peptide
# T1 construct: Full length PDK1 (residues 1-556); made in house; host or cells: 293 cells
# T1 sequence (O15530 52-556): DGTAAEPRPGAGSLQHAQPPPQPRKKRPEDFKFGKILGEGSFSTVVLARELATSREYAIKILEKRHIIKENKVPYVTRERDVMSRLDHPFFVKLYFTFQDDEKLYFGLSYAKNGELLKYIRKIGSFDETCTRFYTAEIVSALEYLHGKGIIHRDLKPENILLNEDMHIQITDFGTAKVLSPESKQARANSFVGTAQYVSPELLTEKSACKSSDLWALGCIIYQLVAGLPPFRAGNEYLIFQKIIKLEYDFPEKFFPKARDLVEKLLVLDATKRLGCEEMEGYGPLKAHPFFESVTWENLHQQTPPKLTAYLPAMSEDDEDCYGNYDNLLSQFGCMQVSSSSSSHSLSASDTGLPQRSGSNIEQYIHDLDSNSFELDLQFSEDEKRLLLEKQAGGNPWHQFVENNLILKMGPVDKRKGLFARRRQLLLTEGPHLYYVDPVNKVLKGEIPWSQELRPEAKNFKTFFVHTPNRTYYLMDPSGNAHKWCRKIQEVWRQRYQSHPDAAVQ
# Description: FIG. 6. Quantitative analysis of the binding of PDK1 to p70 S6K. Surface Plasmon Resonance measurements were carried out on a BiaCore instrument as described in the Methods. His-PDK1 was injected at the indicated concentrations over (A) 2000 RUs of p70 S6K-T2 (closed squares), or 412Ep70 S6K-T2 (closed circles) which was immobolised by amine coupling to a CM5 Sensorchip. Experiments carried out in the presence of either 10 μM wild type PIF peptide (hexagons) or 10 μM D978A mutant PIF peptide (triangles) are indicated. The responses at steady state binding were recorded. All data are single determinations from a representative experiment that was repeated at least 3 times with similar results.
# Surface plasmon resonance measurements of PDK1 binding to p70 S6 kinase. p70 S6K-T2 and T412Ep70S6K-T2 mutant were amine coupled to a CM5 sensor chip (BIAcore AB) according to the manufacturer's instructions. The indicated concentrations of His-PDK1 was injected over the chip at a flow rate of 30 μl/min and the steady-state binding determined, in the presence or absence of PIF peptide. The apparent equilibrium dissociation constant (Kd) for the binding of His-PDK1 to p70 S6 kinase was determined by fitting the increase in steady-state binding upon increased PDK1 concentration to a rectangular hyperbola using SigmaPlot 4 (SPSS Inc). […]
# PDK1 [2] = molecular target: T2, PDK1 (Homo sapiens, UniProt O15530); test: Phosphorylation of p70 S6K at Thr412 by PDK1 in vitro (T412-P immunoblot); type: biochemical; parameters: made in house; host or cells: 293 cells or E. coli; conditions: peptide 4 μM
# T2 sequence (O15530 1-556): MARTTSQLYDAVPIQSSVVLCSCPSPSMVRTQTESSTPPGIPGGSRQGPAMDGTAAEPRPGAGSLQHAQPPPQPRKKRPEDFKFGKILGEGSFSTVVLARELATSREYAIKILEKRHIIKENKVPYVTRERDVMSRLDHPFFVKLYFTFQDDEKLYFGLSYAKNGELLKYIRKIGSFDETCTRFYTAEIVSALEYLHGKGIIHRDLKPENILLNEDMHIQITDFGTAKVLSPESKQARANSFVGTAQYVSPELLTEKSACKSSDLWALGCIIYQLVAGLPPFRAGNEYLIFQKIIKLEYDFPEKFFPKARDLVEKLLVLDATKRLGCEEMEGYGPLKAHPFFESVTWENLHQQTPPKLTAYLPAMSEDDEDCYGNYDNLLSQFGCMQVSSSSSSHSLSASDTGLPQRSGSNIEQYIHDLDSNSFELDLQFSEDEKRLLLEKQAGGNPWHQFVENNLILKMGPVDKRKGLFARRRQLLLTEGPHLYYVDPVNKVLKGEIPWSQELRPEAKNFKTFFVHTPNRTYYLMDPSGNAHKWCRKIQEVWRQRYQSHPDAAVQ
# Description: FIG. 2. PDK1 phosphorylates p70 S6K at Thr412 in vitro and this is inhibited by PIF. 0.5 μg of either wild type GST-p70 S6K-T2 (wt), T252A-GST-p70 S6K-T2 (252A) or T412A-GST-p70 S6K-T2 (412A) were incubated for 90 min at 30° C. with MgATP in the presence or absence of wild type (wt) or kinase-dead (kd) GST-PDK1 expressed in either 293 cells or bacteria in the presence (+) or absence (−) of the wild type PIF peptides (4 μM) in a final volume of 20 μl. The reactions were terminated by making the solutions 1% in SDS, the samples were subjected to SDS-polyacylamide gel electrophoresis, and the phosphorylation of p70 S6K at Thr412 was assessed by immunoblotting with the T-412P antibody. Similar results were obtained in three separate experiments.
# Immunoblotting for dephosphorylated and Thr412-phosphorylated p70 S6 kinase. Cell lysates were made 1% SDS and the indicated amounts of protein were subjected to SDS/Polyacrylamide gel electrophoresis, subsequently transferred to nitrocellulose and immunoblotted using the indicated monoclonal antibody or the T412-P phospho-specific antibody (0.4 μg/ml) in 50 mM Tris/HCl pH7.5, 0.15M NaCl, 0.5% (by vol) Tween and 10% (by mass) skimmed milk. Detection was performed using the enhanced chemiluminescence reagent (Amersham Pharmacia Biotech).
structure (smiles),measurement,setting,value
CC[C@H](C)[C@H](NC(=O)[C@H](Cc1ccc(O)cc1)NC(=O)[C@H](CC(=O)O)NC(=O)[C@H](Cc1ccccc1)NC(=O)[C@H](CC(=O)O)NC(=O)[C@H](CCCNC(=N)N)NC(=O)[C@H](Cc1ccccc1)NC(=O)[C@H](CCSC)NC(=O)[C@H](CCC(=O)O)NC(=O)[C@H](CCC(N)=O)NC(=O)[C@H](CCC(=O)O)NC(=O)[C@H](CCC(=O)O)NC(=O)[C@H](CCC(=O)O)NC(=O)[C@H](CO)NC(=O)[C@H](CC(C)C)NC(=O)[C@@H](NC(=O)[C@H](CCCNC(=N)N)NC(=O)[C@@H]1CCCN1C(=O)[C@H](CCC(=O)O)NC(=O)[C@@H](N)CCCNC(=N)N)[C@@H](C)CC)C(=O)N[C@@H](C)C(=O)N[C@@H](CC(=O)O)C(=O)N[C@@H](Cc1c[nH]c2ccccc12)C(=O)N[C@@H](CS)C(=O)O [PIFtide] (H-REPRILSEEEQEMFRDFDYIADWC-OH; N-terminus and C-terminus assumed),effect on the interaction between PDK1 and 412E-p70 S6K-T2,PDK1 [1],abolished
same,effect on phosphorylation of p70 S6K at Thr412 by PDK1,PDK1 [2],prevented
